Assay results as given in EP0126817A1, “Suppressing of graft rejection in organ transplantation” (SHANKSVILLE CORPORATION N.V., priority 1983, dated 1984).

Tests used:
Assay type in all cases: cell-based
[1] = tested on: Peripheral blood lymphocytes; assay: T lymphocyte blast transformation in IL-2 containing culture medium pretreated with the ganglioside and dialysed; conditions: IL-2 medium RPMI 1640 treated with 5 micrograms per ml at 37°C for 30 minutes, dialysed 24 hours at 4°C; cells incubated 7 days
Method: This Example illustrates that asialo GM1 reacts with a soluble mediator for T lymphocyte blastogenesis inhibiting cytotoxic T cell formation. Peripheral blood lymphocytes are isolated by a density gradient centrifugation on ficoll hypaque and incubated 24 hours in the absence of serum proteins. Interleukin 2 containing tissue culture medium RPMI 1640 is treated with asialo GM1 in a concentration of 5 micrograms per ml of culture medium. The incubation with asialo GM1 is performed at 37°C for 30 minutes. Thereafter,the treated culture medium is dialysed against RPMI 1640 without supplements for 24 hours at a temperature of 4°C. The cells are incubated in the dialysed (and thus containing no free asialo GM1) culture medium for 7 days. For dialysis, the critical micellar concentration (CMC) of the ganglioside has to be regarded. If it is exceeded, dialysis will be impossible. CMC values for each ganglioside have been established, and are readily available.

cytotoxic T lymphoblasts = assay: Chromium release test: inhibition of tumor cell killing by cytotoxic T cells activated by interleukin 2; conditions: HeLa tumor cells labelled with radioactive chromium, 2 micrograms per ml of culture medium
Method: The following test is conducted to determine the inhibition of tumor cell killing capability of cytotoxic T cells activated by interleukin 2. Tumor cells from HeLa strain are labelled with radioactive chromium. The cells are washed and divided into two portions comprising the same cell number. Both portions are coincubated with cytotoxic T lymphoblasts for 18 hours. The culture medium contains IL-2. To one of the portions, at the beginning of the cocultivation, desialo GM1 is added'in concentration of 2 micrograms per ml of culture medium. The culture medium is decanted and the cells are pelleted in a centrifuge.

T cell blasts = assay: In vitro T cell culture systems containing IL-2 (general finding)
From the text: This observation therefore leads to an in vivo procedure for modification of the cell mediated immunological graft rejection mechanism by blocking the formation of cytotoxic T cells at the level of the T effector cells and without destroying macrophage cells. Accordingly, the procedure of the present invention is highly advantageous as compared to presently available techniques for transplant protection, particularly by the use of immunosuppressive drugs. […] Therefore, such drugs will subject the patient to increased risk of infectious diseases. […] At the time of the graft transplantation therefore, the consequence of IL-2 and T cell blasts will allow the latter to proliferate until the IL-2 is consumed. This process generally requires several days. In contrast, the immunosuppressive blocking agents of this invention require less than 24 hours to effectively terminate cytotoxic T cell proliferation and to kill off any existing cytotoxic T cells.

Gal(beta 1-3)GalNac(beta 1-4)Glc(beta 1-1)Cer [asialo GM1]
blast transformation of T cells [1]: no blast transformation of T cells is observed | % of Cr released, Target and T cell (cytotoxic T lymphoblasts; coincubated with cytotoxic T lymphoblasts for 18 hours, IL-2 medium): 5.3% | % of Cr released, Target and control (cytotoxic T lymphoblasts; control in place of T cells, 18 hours): 3.8% | proliferation of T cell blasts in growing T cell lines (T cell blasts): prevents proliferation of T cell blasts
